Data set [1] relates to male mice exposed to total body irradiation (TBI). Kind of data set: Phase 2 efficacy: survival of mice dosed prior to total body irradiation (TBI) at LD100/30. The format is in vivo. The note with it: for median survival time / animals survived until scheduled sacrifice (Day 30) / mice found dead / mice moribund sacrificed: 1000 mg/kg oral gavage prior to TBI 9.9 Gy; for median survival time: 11 male mice per group; for body weight gain: Days 5 to 9 after TBI 9.9 Gy, compared to the vehicle group; for survival of animals through 30 days post exposure: treated prior to total body irradiation (LD100/30). The method, then: (§1) Male mice were randomized and assessed in two phases: 1) for maximum tolerated doses (MTDs) of PrC-210, DzCH2SH, and 2Pip-2PrSH to determine dose levels for the efficacy study and 2) to evaluate the efficacy of the compounds when administered 60+5 minutes prior to exposure to total body irradiation (TBI) at an LD100/30 dose (990 cGy) (Tables 1 and 2).
(§2) For Phase 1 or 2, sterile water (vehicle), PrC-210, DzCH2SH, and 2Pip2PrSH were administered at 10 mL/kg calculated based on the most recent body weight via oral gavage. Animals were not fasted prior to administration of the compounds or vehicle. Mice in Phase 1 were administered the dose on Day 1 and mice in Phase 2 were administered the dose 60+5 minutes prior to TBI on Day 0.
Irradiation was administered once to the whole body. TBI of mice were performed using a 6 MV LINAC photon source (TrueBeam STx source). Animals were irradiated at a dose rate of up to 80 cGy/min to the midline of the animals. The source irradiated animals to 50% of the dose from anterior-posterior direction and […] from the posterior-anterior direction. Dose measurements were performed with a PTW 31010 0.1 cc Semiflex Ion chamber.
(§3) All surviving animals were observed once daily for clinical signs (e.g., unusually low or high activity, lethargy, shivering, appearance of fur, bloody and water stool, and other symptoms of moribundity) at 1-2 hours post-irradiation and/or post-dose and once daily on non-dosing days until Day 4 (Phase 1) or Day 30 (Phase 2).
In Phase 2 (Table 2), survival curves of mice treated with vehicle, PrC-210, DzCH2SH or 2Pip-PrSH prior to TBI with 9.9 Gy were measured (FIG. 1). […] Five mice were moribund sacrificed, and 6 mice were found dead. Survival in the Group 13 animals was 0% and median survival time was 8 days. In mice administered with PrC-210 before TBI (Group 14), 4 animals survived until scheduled sacrifice (Day 30) while 7 mice were moribund sacrificed. […] In mice administered with DzCH2SH before TBI (Group 15), 3 animals survived until scheduled sacrifice (Day 30) while 7 mice were moribund sacrificed, and one mouse was found dead. […] Five mice were moribund sacrificed and six mice were found dead. Survival in the Group 16 mice was 0% and median survival time was 10 days.

Data set [2] in a line: Phase 1 maximum tolerated dose (MTD) in mice, oral gavage. The format is in vivo. The note with it: 1,000 mg/kg, male mice. The method, then:
as §1, §2, §3
In Phase 1 (Table 1), all animals were normal when observed and all body weights were within normal range. The dose level of 1000 mg/kg was selected for Phase 2.

Data set [3] can be described thus: Exposure of the solid salt to the atmosphere (hygroscopicity). The conditions noted are these: 10 minute exposure of a small amount to the atmosphere, diHCl salt. The format is physicochemical. As to the method:
Concentration (rotary evaporator at ambient temperature) provided a crude oily residue which was triturated with hexane producing a white solid. The hexane was removed (via pipette suction) and replaced with dry THE (25 ml). After an additional 10 minutes of trituration, the THF was removed and replaced with dry hexane (25 ml). After an additional 10 minutes of trituration, the hexane was removed and the resulting white solid was dried in vacuo over P2O5 providing 1.95 grams of diHCl salt of PrC-210 (88%).
In Reaction J: 34 ml of HCl in methanol, 6 eq. (1.25 M solution, Aldrich Cat #17935) was added to a solution of compound X, 2.5 grams, 0.007 moles dissolved in 10 mL dry methanol in a flask under argon and equipped for magnetic stirring and the reaction was stirred at room temperature for 24 hours. […] The solution was degassed by gently bubbling argon into the solution for 30 minutes. […]
In Reaction P: Compound XVI, 2.2 grams, 0.0058 moles was placed in a round-bottom flask equipped for magnetic stirring followed by 15 mL anhydrous trifluoroacetic acid (CF3COOH, Aldrich #8.08260). The flask was fitted with a condenser and the solution was refluxed for 5 hours whereupon it was determined that the reaction was complete using TLC by observing the disappearance of starting material and the appearance of a highly polar product, which stained positive with ninhydrin. […]

Data set [4] has as its system mice exposed to 8 Gy (LD100) radiation. Kind of data set: Protection of mice from lethal radiation (8 Gy, LD100). Type of data set: in vivo. The conditions noted are these: oral gavage 15-90 minutes prior to 8 Gy (LD100), 60 days post irradiation. The method, then: The radioprotective efficacy of the thiols, prodrugs and double prodrugs according to this disclosure is assessed in mice. The compounds of the disclosure are administered via oral gavage to mice, and are compared to mice that have been administered 3-(methylamino)-2-(methylaminomethyl)propane-1-thiol (PrC-210), as well as to a control group or mice that are administered vehicle (i.e., containing no radioprotective additive).
More specifically, mice are assigned to three groups (Groups 1, 2 and 3). A control group, Group 1, is treated via oral gavage with vehicle (Lactated Ringer's and 5% dextrose, adjusted to pH 7.3 with sodium bicarbonate) 15-90 minutes prior to a dose of 8 Gy (LD100) radiation. Group 2 is treated via oral gavage with PrC-210, as a positive control, dissolved in Lactated Ringer's at a dose of 200 mg/kg 15-90 minutes prior to irradiation with 8 Gy (LD100). Group 3 is treated via oral gavage with compound 1 (PrC-210-PT) dissolved in Lactated Ringer's at a dose of 308 mg/kg 15-90 minutes prior to irradiation with 8 Gy (LD100). The mortality of the three groups is assessed for 60 days post irradiation. The experiment is repeated with doses of PrC-210 ranging from 200 mg/kg to 450 mg/kg. Molar equivalent dosages of the test compound (compound 1, Prc-210-PT) to PrC-210 are also assessed.
The experiment is repeated to assess the efficacy of compounds 2-23 as radioprotectors.

For data set [5] the following is noted: in vivo; cited from earlier work.
Data set [6] relates to mice exposed to whole body irradiation. Kind of data set: Radiation dose required to kill 50% of mice (LD50), whole body irradiation. The format is in vivo. The note with it: oral gavage 60 minutes prior to whole body irradiation 2-12 Gy, 30 days. The method, then: The affect of the compounds according to the disclosure on the dose of radiation required to kill 50% of mice (LD50) is assessed.
Mice are assigned to three groups (Groups 1, 2 and 3). A control group, Group 1, is treated via oral gavage with vehicle (Lactated Ringer's and 5% dextrose, adjusted to pH 7.3 with sodium bicarbonate) 60 minutes prior to whole body irradiation (2 Gy). Group 2 is treated via oral gavage with PrC-210, as a positive control, dissolved in Lactated Ringer's at a dose of 200 mg/kg 60 minutes prior to whole body irradiation (2 Gy). Group 3 is treated via oral gavage with compound 1 (PrC-210-PT) dissolved in Lactated Ringer's at a dose of 308 mg/kg 60 minutes prior to whole body irradiation (2 Gy). The mortality of the three groups is assessed for 30 days post irradiation.
The experiment is repeated using varying radiation doses of 4, 6, 8, 10 and 12 Gy. The LD50 for each group was determined.
The experiment is repeated to assess compounds 2-23 as radioprotectors.

Where [7] appears, read: clinical signs after TBI 9.9 Gy, of 11 mice.

Consider three molecules from patent US11566032B2, “Radio-protective and chemo-protective substituted thiols” (TONIX PHARMACEUTICALS, INC., priority 2020, dated 2023).

As for `CC(C)(S)C1CNCCN1` (stereo not drawn) [Compound 2Pip-2PrSH, 2-(piperazin-2-yl)propane-2-thiol], the Survival in data set [1] (1000 mg/kg oral gavage 60+5 minutes prior to TBI 9.9 Gy (LD100/30), Day 30, 11 male mice per group) was 0%. For the same molecule, in data set [1], the median survival time is 10 days and the body weight gain result is reported as “did not gain body weights”. For the same molecule, in data set [1] (of 11 mice), the “animals survived until scheduled sacrifice (Day 30)” value is “no animals survived”, the mice found dead result is “six” and the mice moribund sacrificed result was “Five”. Also, in data set [1] (setting [7]), the “Cold to touch skin, number of animals” value was found to be 4; the “Eye discharge, number of animals” value is “one”; the “Hypoactivity, number of animals” value worked out at 5; the “Lethargy and swollen head, number of mice” value is on record as “one”. Also, the “Swollen eye, number of animals” value in data set [1] (setting [7]) is given as “one”. In addition, in data set [2], the “toxicity at the highest tested dose” value was “did not produce any toxicity”.

For the molecule `SCC1CNCCNC1` [DzCH2SH, (1,4-diazepan-6-yl)methanethiol], in data set [1], the median survival time turned out to be 11 days, the body weight gain entry is reported as “did not gain body weights” and the “survival of animals through 30 days post exposure” value is “increased survival”. Also, in data set [1] (of 11 mice), the “animals survived until scheduled sacrifice (Day 30)” value worked out at 3, the mice found dead entry is reported as “one” and the mice moribund sacrificed stood at 7. Moreover, in data set [1] (1000 mg/kg oral gavage prior to TBI 990 cGy), the “mortality rate at 8-days post-irradiation” value is listed as “efficacious effects”. For the same molecule, in data set [1] (setting [7]), the “Cold to touch skin, number of animals” value was “one”; the “Eye discharge, number of animals” value is 2; the “Eye opacity, number of mice” value is “one”; the “Hypoactivity, number of animals” value worked out at 5. In addition, in data set [1] (setting [7]), the “Labored breathing, number of mice” value is “one”; the “Lethargy and swollen head, number of mice” value was “one”; the “Swollen eye, number of animals” value is listed as 2; the “eye cloudy, number of animals” value came out at 2. In addition, the “sunken eye, number of animals” value in data set [1] (setting [7]) was found to be 1. The “toxicity at the highest tested dose” value in data set [2] is given as “did not produce any toxicity”. The signs of hygroscopicity entry in data set [3] is “did not show any signs of hygroscopicity”.

On to `CNCC(CS)CNC` [PrC-210, 3-(methylamino)-2-((methylamino)methyl)propane-1-thiol, reference compound], for which the “rate of survival, control group versus treated mice” value in data set [4] is on record as “control group demonstrates a reduced rate of survival compared to the mice treated”. Also, in data set [1], the median survival time amounted to 11 days, the body weight gain entry was “significantly higher” and the “survival of animals through 30 days post exposure” value is on record as “increased survival”. Besides, in data set [1] (of 11 mice), the “animals survived until scheduled sacrifice (Day 30)” value is on record as 4 and the mice moribund sacrificed is recorded as 7. For the same molecule, the mean body weight result in data set [1] (Day 9 after TBI 9.9 Gy) was “higher than body weights in the Groups 13, 15 and 16”. Besides, in data set [1] (setting [7]), the “Eye discharge, number of animals” value was “one”; the “Hypoactivity, number of animals” value was 5; the “Swollen eye, number of animals” value is on record as “one”; the “Tremor, number of mice” value was found to be 4. The “side effects compared with Amifostine” value in data set [5] was “less side effects than Amifostine”. Also, in data set [6], the “LD50 (radiation dose), control group versus treated mice” value is listed as “control group demonstrates a lower LD50 compared to the mice treated”. The “toxicity at the highest tested dose” value in data set [2] is recorded as “did not produce any toxicity”. Also, the signs of hygroscopicity entry in data set [3] is given as “did not show any signs of hygroscopicity”.
